Data from US20260365682A1, “MODULATORS OF TNF-ALPHA ACTIVITY” (Forward Therapeutics, Inc., priority 2022, published 2026).

These compounds were tested against T1, TNF-α (Homo sapiens, UniProt P01375) (assay: TNF-α Induced HEK Blue Cellular Assay (secreted alkaline phosphatase expression, QUANTI-Blue)). Settings: HEK Blue TNFα reporter cells; TNF-α 100 μg/ml; 24 hrs at 37° C.; inhibition of secreted alkaline phosphatase; read-out: IC50 value.
T1 construct: purchased R&D 210-TA-020/CF
Format: cell-based
Procedure: TNF-α Induced HEK Blue Cellular Assay
Test articles were diluted in DMSO and serially diluted into 384 well assay plate (Corning 3765), at final concentrations ranging from […] to 0.5 nM. HEK Blue™ TNFα reporter cells were added at a final density of 10,000 cell per well in assay media [DMEM (Gibco, cat #21063-029), 10% fetal bovine serum (ExcelBio, cat #FND500), 1% Penicillin-Streptomycin (Solarbio, cat #P1400-100]. TNF-α (R&D 210-TA-020/CF) was then added to the assay plate at a final concentration of […]. This plate was then incubated for 24 hrs at 37° C. and 5% CO2. Secreted alkaline phosphatase expression was then measured using QUANTI-Blue™ (Invivogen), according to manufacturer instructions and read on an Envision microplate reader at 620 nm.
Inhibition data for test compound over a range of concentration was plotted as percentage inhibition of the test compound (100%=maximum inhibition). IC50 values were determined after correcting for background [(sample read-mean of low control)/(mean of high control-mean of low control)] whereby the low control is DMSO without stimulation and high control is DMSO with stimulation. The IC50 is defined as the concentration of test compound which produces 50% inhibition and was quantified using the 4 parameter logistic equation to fit the data.

T1 sequence (P01375 77-233 limits assumed): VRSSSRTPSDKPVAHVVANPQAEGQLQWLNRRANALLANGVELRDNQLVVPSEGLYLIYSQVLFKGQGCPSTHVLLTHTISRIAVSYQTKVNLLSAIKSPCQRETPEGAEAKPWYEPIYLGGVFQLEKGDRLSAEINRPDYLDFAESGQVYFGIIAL

| SMILES | IC50 [µM] |
| --- | --- |
| [2H]C([2H])([2H])N1C(=O)c2cccc(OC(F)F)c2[C@H]2C[C@@H]1c1nc3ccc(C#CC4(C)CN(C)C4)cc3n12 [Example 155, (7R,14R)-1-(difluoromethoxy)-11-((1,3-dimethylazetidin-3-yl)ethynyl)-6-(methyl-d3)-6,7-dihydro-7,14-methanobenzo[f]benzo[4,5]imidazo[1,2-a][1,4]diazocin-5(14H)-one] | < 0.1 |
| [2H]C([2H])([2H])N1C(=O)c2cccc(OC(F)F)c2[C@H]2C[C@@H]1c1nc3ccc(C#CCCNCC)cc3n12 [Example 152, (7R,14R)-1-(difluoromethoxy)-11-(4-(ethylamino)but-1-yn-1-yl)-6-(methyl-d3)-6,7-dihydro-7,14-methanobenzo[f]benzo[4,5]imidazo[1,2-a][1,4]diazocin-5(14H)-one] | 0.1 to 1 |
| [2H]C([2H])([2H])N1C(=O)c2cccc(OC(F)F)c2[C@H]2C[C@@H]1c1nc3ccc(C#Cc4cnc(C)cn4)cc3n12 [Example 34, (7R,14R)-1-(difluoromethoxy)-6-(methyl-d3)-11-((5-methylpyrazin-2-yl)ethynyl)-6,7-dihydro-7,14-methanobenzo[f]benzo[4,5]imidazo[1,2-a][1,4]diazocin-5(14H)-one] | < 0.1 |
| [2H]C([2H])([2H])N1C(=O)c2cccc(OC(F)F)c2[C@H]2C[C@@H]1c1nc3ccc(C#CCC(C)(C)O)cc3n12 [Example 82, (7R,14R)-1-(difluoromethoxy)-11-(4-hydroxy-4-methylpent-1-yn-1-yl)-6-(methyl-d3)-6,7-dihydro-7,14-methanobenzo[f]benzo[4,5]imidazo[1,2-a][1,4]diazocin-5(14H)-one] | 10 to 30 |
| [2H]C([2H])([2H])N1C(=O)c2cccc(OC(F)F)c2[C@H]2C[C@@H]1c1nc3ccc(C#Cc4cnccn4)cc3n12 [Example 22, (7R,14R)-1-(difluoromethoxy)-6-(methyl-d3)-11-(pyrazin-2-ylethynyl)-6,7-dihydro-7,14-methanobenzo[f]benzo[4,5]imidazo[1,2-a][1,4]diazocin-5(14H)-one] | < 0.1 |
| CC1C(C#Cc2ccc3nc4n(c3c2)[C@@H]2C[C@H]4N(C)C(=O)c3cccc(OC(F)F)c32)CN1C1COC1 (single isomer, unassigned) [Example 257, (7R,14R)-1-(difluoromethoxy)-6-(methyl-d3)-11-(((2S or 2R)-2-methyl-1-(oxetan-3-yl)azetidin-3-yl)ethynyl)-6,7-dihydro-7,14-methanobenzo[f]benzo[4,5]imidazo[1,2-a][1,4]diazocin-5(14H)-one] | < 0.1 |
| [2H]C([2H])([2H])N1C(=O)c2cccc(OC(F)F)c2[C@H]2C[C@@H]1c1nc3ccc(C#Cc4cnc(C(F)(F)F)nc4)cc3n12 [Example 23, (7R,14R)-1-(difluoromethoxy)-6-(methyl-d3)-11-((2-(trifluoromethyl)pyrimidin-5-yl)ethynyl)-6,7-dihydro-7,14-methanobenzo[f]benzo[4,5]imidazo[1,2-a][1,4]diazocin-5(14H)-one] | 0.1 to 1 |
| [2H]C([2H])([2H])N1C(=O)c2cccc(OC(F)F)c2[C@H]2C[C@@H]1c1nc3ccc(C#C[C@H](C)NCC)cc3n12 [Example 55, (7R,14R)-1-(difluoromethoxy)-11-((S)-3-(ethylamino)but-1-yn-1-yl)-6-(methyl-d3)-6,7-dihydro-7,14-methanobenzo[f]benzo[4,5]imidazo[1,2-a][1,4]diazocin-5(14H)-one] | 10 to 30 |
| [2H]C([2H])([2H])N1C(=O)c2cccc(OC(F)F)c2[C@H]2C[C@@H]1c1nc3ccc(C#Cc4nnc(N)s4)cc3n12 [Example 263, (7R,14R)-11-((5-amino-1,3,4-thiadiazol-2-yl)ethynyl)-1-(difluoromethoxy)-6-(methyl-d3)-6,7-dihydro-7,14-methanobenzo[f]benzo[4,5]imidazo[1,2-a][1,4]diazocin-5(14H)-one] | < 0.1 |
| [2H]C([2H])([2H])N1C(=O)c2cccc(OC(F)F)c2[C@H]2C[C@@H]1c1nc3ccc(C#CC4CCCN(C(=O)C5CC5)C4)cc3n12 (stereo partly drawn) [Example 184, (7R,14R)-11-((1-(cyclopropanecarbonyl)piperidin-3-yl)ethynyl)-1-(difluoromethoxy)-6-(methyl-d3)-6,7-dihydro-7,14-methanobenzo[f]benzo[4,5]imidazo[1,2-a][1,4]diazocin-5(14H)-one] | < 0.1 |
| [2H]C([2H])([2H])N1C(=O)c2cccc(OC(F)F)c2[C@H]2C[C@@H]1c1nc3ccc(C#CCCN4CCCC4)cc3n12 [Example 136, (7R,14R)-1-(difluoromethoxy)-6-(methyl-d3)-11-(4-(pyrrolidin-1-yl)but-1-yn-1-yl)-6,7-dihydro-7,14-methanobenzo[f]benzo[4,5]imidazo[1,2-a][1,4]diazocin-5(14H)-one] | < 0.1 |
| [2H]C([2H])([2H])N1C(=O)c2cccc(OC(F)F)c2[C@H]2C[C@@H]1c1nc3ccc(C#CCCC(C)O)cc3n12 (stereo partly drawn) [Example 207, (7R,14R)-1-(difluoromethoxy)-11-(5-hydroxyhex-1-yn-1-yl)-6-(methyl-d3)-6,7-dihydro-7,14-methanobenzo[f]benzo[4,5]imidazo[1,2-a][1,4]diazocin-5(14H)-one] | < 0.1 |
| CN1C(=O)c2cccc(OC(F)F)c2[C@H]2C[C@@H]1c1nc3ccc(C#Cc4cnn(CCO)c4)cc3n12 [Example 5, (1R,11R)-18-(difluoromethoxy)-5-{2-[1-(2-hydroxyethyl)pyrazol-4-yl]ethynyl}-12-methyl-2,9,12-triazapentacyclo[9.8.1.0^{2,10}.0^{3,8}.0^{14,19}]icosa-3(8),4,6,9,14(19),15,17-heptaen-13-one] | < 0.1 |
| [2H]C([2H])([2H])N1C(=O)c2cccc(OC(F)F)c2[C@H]2C[C@@H]1c1nc3ccc(C#CCCCNC)cc3n12 [Example 153, (7R,14R)-1-(difluoromethoxy)-6-(methyl-d3)-11-(5-(methylamino)pent-1-yn-1-yl)-6,7-dihydro-7,14-methanobenzo[f]benzo[4,5]imidazo[1,2-a][1,4]diazocin-5(14H)-one] | 0.1 to 1 |
| [2H]C([2H])([2H])N1C(=O)c2cccc(OC(F)F)c2[C@H]2C[C@@H]1c1nc3ccc(C#CCN4CCC(F)(F)C4)cc3n12 [Example 230, (7R,14R)-1-(difluoromethoxy)-11-(3-(3,3-difluoropyrrolidin-1-yl)prop-1-yn-1-yl)-6-(methyl-d3)-6,7-dihydro-7,14-methanobenzo[f]benzo[4,5]imidazo[1,2-a][1,4]diazocin-5(14H)-one] | < 0.1 |
| [2H]C([2H])([2H])N1C(=O)c2cccc(OC(F)F)c2[C@H]2C[C@@H]1c1nc3ccc(C#CCCCN4CCN(C)CC4)cc3n12 [Example 133, (7R,14R)-1-(difluoromethoxy)-6-(methyl-d3)-11-(5-(4-methylpiperazin-1-yl)pent-1-yn-1-yl)-6,7-dihydro-7,14-methanobenzo[f]benzo[4,5]imidazo[1,2-a][1,4]diazocin-5(14H)-one] | 0.1 to 1 |
| [2H]C([2H])([2H])N1C(=O)c2cccc(OC(F)F)c2[C@H]2C[C@@H]1c1nc3ccc(C#CCC4CC4)cc3n12 [Example 105, (7R,14R)-11-(3-cyclopropylprop-1-yn-1-yl)-1-(difluoromethoxy)-6-(methyl-d3)-6,7-dihydro-7,14-methanobenzo[f]benzo[4,5]imidazo[1,2-a][1,4]diazocin-5(14H)-one] | < 0.1 |
